Laboratory results: patent publication US20220387608A1, “ADRENOMEDULLIN-ANALOGUES FOR LONG-TERM STABILIZATION AND THEIR USE” (Bayer Aktiengesellschaft, priority 2019, published 2022)
Positions of bridges follow the written chain, without caps; N, C: chain ends. Residues, ends and D or L forms follow the SMILES beside them.

Molecular target: T1, AM1R (Homo sapiens, UniProt O60895+Q16602)
T1 construct: EYFP; ECFP; expressed in transfected cells; host or cells: HEK-293 (transient co-transfection)
Assay: Activity determination in vitro: cAMP/CRE-luciferase reporter assay in HEK293 cells transiently co-transfected with CLR and RAMP2
Type: cell-based
Conditions: for Emax: HEK293, normalized to [G14]ADM(14-52); for EC50: HEK293 with CLR/RAMP2, CRE-luciferase, 3 h stimulation
Experimental: (1a) Activity Determination of Adrenomedullin Analogues in vitro
Cell Culture HEK-293 cells (human embryonic kidney cells) were cultured in Ham's F-12/DMEM (1/1; v/v) containing 15% FCS under humidified atmosphere at 37° C. and 5% CO2 in 75 cm^2 cell culture flasks.
Cells were cultured in 75 cm^2 flasks to 70-80% confluency. 45 μl Metafectene® Pro was diluted in 900 ρl Ham's F-12/DMEM (1/1; v/v) and incubated for 20 min at room temperature. 9 μg plasmid containing DNA of CLR fused to EYFP and 3 μg plasmid containing DNA of RAMP2 fused to ECFP were dissolved in 900 μl Ham's F-12/DMEM (1/1; v/v). The plasmid solution was mixed with the Metafectene® Pro solution and incubated for 25 min at room temperature. Medium was removed from the cells and replaced by 6 m1 Ham's F-12/DMEM (1/1; v/v) containing 15% FCS. After addition of transfection solution the cells were incubated for 3 h under humidified atmosphere at 37° C. and 5% CO2. For the second transfection 45 μl Metafectene® Pro was diluted in 900 μl Ham's F-12/DMEM (1/1; v/v) and incubated for 20 min at room temperature. 12 μg of pGL4.29[Luc2P/CRE/Hygro] plasmid containing DNA for the luciferase reporter gene luc2P (with CRE promotor region) were dissolved in 900 μl Ham's F-12/DMEM (1/1; v/v). The plasmid solution was mixed with the Metafectene® Pro solution and incubated for 25 min at room temperature. Medium was removed from the cells and replaced by 6 m1 Ham's F-12/DMEM (1/1; v/v) containing 15% FCS. After addition of transfection solution, the cells were incubated under humidified atmosphere at 37° C. and 5% CO2 over night.
For coating of 96-well-plates, 50 μl of a poly-D-lysine solution in DPBS (0.1 mg/ml) were pipetted in each well and incubated for 40 min. After removal of poly-D-lysine, each well was washed with 50 μl DPBS. Transiently transfected cells were detached from the cell culture flask by removal of the medium, 2-fold washing with 5 m1 DPBS and resuspending in 40 m1 Ham's F-12/DMEM (1/1; v/v) containing 15% FCS. 90,000 to 120,000 cells in 150 μl Ham's F-12/DMEM (1/1; v/v) containing 15% FCS were seeded per well and the plates were incubated under humidified atmosphere at 37° C. and 5% CO2 over night.
For each ligand, a serial dilution with eight different concentrations was prepared using Ham's F^12/DMEM (1/1; v/v). Before stimulation, the medium on the cells was replaced by 100 μl Ham's F^12/DMEM (1/1; v/v) and the plates were incubated for 1 h under humidified atmosphere at 37° C. and 5% CO2. For stimulation, the medium was removed and the cells were incubated for 3 h in 80 μl of ligand-solution under humidified atmosphere at 37° C. and 5% CO2. In addition 80 μl of a 5 μM forskolin solution in Ham's F-12/DMEM (1/1; v/v) was used as a positive control and 80 μl of Ham's F-12/DMEM (1/1; v/v) as a negative control. Each concentration and the controls were tested as triplicates.
After 3 h of stimulation, the solutions were removed and the cells were washed with 50 μl of Ham's F-12/DMEM (1/1; v/v) perwell. After 10 m incubation in 30 μl of Ham's F-12/DMEM (1/1; v/v) at room temperature, 30 μl of luciferase-solution (ONE-Glo™ Luciferase Assay System) was added and the luminescence was directly measured using an Infinite M200 (Tecan).
Data analysis of the luminescence measurement was carried out with GraphPad Prism 5. Therefore, the measured luminescence values of each plate were first corrected on the base of the respective average of forskolin stimulation. Afterwards they were normalized to [G14]ADM(14-52), which was used as standard peptide in every assay. After correction and normalization, data was analyzed using non-linear regression giving dose-response curves for each tested ligand.

T1 sequence (Q16602 23-461): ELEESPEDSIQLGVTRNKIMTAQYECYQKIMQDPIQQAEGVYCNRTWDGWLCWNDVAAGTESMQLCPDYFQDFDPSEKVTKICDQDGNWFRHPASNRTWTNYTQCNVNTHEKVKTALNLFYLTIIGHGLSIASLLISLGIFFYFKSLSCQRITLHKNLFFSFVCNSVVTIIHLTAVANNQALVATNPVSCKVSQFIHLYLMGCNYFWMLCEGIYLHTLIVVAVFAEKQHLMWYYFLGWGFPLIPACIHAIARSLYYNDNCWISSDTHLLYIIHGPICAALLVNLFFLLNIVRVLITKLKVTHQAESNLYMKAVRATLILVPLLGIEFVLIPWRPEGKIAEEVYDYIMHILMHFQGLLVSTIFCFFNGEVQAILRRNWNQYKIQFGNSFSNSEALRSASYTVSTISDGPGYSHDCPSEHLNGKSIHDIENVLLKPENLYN
T1 sequence (O60895 43-175): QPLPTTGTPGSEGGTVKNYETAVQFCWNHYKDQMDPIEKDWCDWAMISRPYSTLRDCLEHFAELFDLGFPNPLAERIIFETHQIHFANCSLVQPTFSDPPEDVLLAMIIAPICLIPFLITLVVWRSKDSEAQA

| Compound | Emax [%] | EC50 [nM] |
| --- | --- | --- |
| CC[C@H](C)[C@H](NC(=O)[C@H](CCC(N)=O)NC(=O)[C@H](Cc1c[nH]cn1)NC(=O)[C@H](C)NC(=O)[C@H](CC(C)C)NC(=O)[C@H](CCCCN)NC(=O)[C@H](CCC(N)=O)NC(=O)[C@@H](NC(=O)[C@@H](NC(=O)[C@@H]1CSSC[C@H](NC(=O)CNC(=O)CN)C(=O)N[C@@H](CCCNC(=N)N)C(=O)N[C@@H](Cc2ccccc2)C(=O)NCC(=O)N[C@@H]([C@@H](C)O)C(=O)N1)[C@@H](C)O)C(C)C)C(=O)N[C@@H](Cc1ccc(O)cc1)C(=O)N[C@@H](CCC(N)=O)C(=O)N[C@@H](Cc1ccccc1)C(=O)N[C@H](C(=O)N[C@@H](CC(=O)O)C(=O)N[C@@H](CCCCN)C(=O)N[C@@H](CC(=O)O)C(=O)N[C@@H](CCCCN)C(=O)N[C@@H](CC(=O)O)C(=O)N[C@@H](CC(N)=O)C(=O)N[C@H](C(=O)N[C@@H](C)C(=O)N1CCC[C@H]1C(=O)N[C@H]1CCCCNC(=O)C[C@@H](C(=O)N2CCC[C@H]2C(=O)N[C@@H](CCC(N)=O)C(=O)NCC(=O)N[C@@H](Cc2ccc(O)cc2)C(N)=O)NC(=O)[C@H]([C@@H](C)CC)NC(=O)[C@H](CCCCN)NC(=O)[C@H](CO)NC1=O)C(C)C)[C@@H](C)O [Example 1, ((4R,7S,13S,16S,19R)-19-(2-(2-aminoacetamido)acetamido)-13-benzyl-16-(3-guanidinopropyl)-7-((R)-1-hydroxyethyl)-6,9,12,15,18-pentaoxo-1,2-dithia-5,8,11,14,17-pentaazacycloicosane-4-carbonyl)-L-threonyl-ADM(23-43)-((2S,5S,8S,11S,18S)-5-(4-aminobutyl)-18-(λ^2-azaneyl)-8-((S)-sec-butyl)-2-(hydroxymethyl)-3,6,9,13,19-pentaoxo-1,4,7,10,14-pentaazacyclononadecane-11-carbonyl)-L-prolyl-ADM(50-52)] (H-GGCRFGTCTVQKLAHQIYQFTDKDKDNVAPKSKIDPQGY-NH2; disulfide 3-8; lactam 31-35) | 102 ± 3 | 3.9 |
| CC[C@H](C)[C@H](NC(=O)[C@H](CCC(N)=O)NC(=O)[C@H](Cc1c[nH]cn1)NC(=O)[C@H](C)NC(=O)[C@H](CC(C)C)NC(=O)[C@H](CCCCN)NC(=O)[C@H](CCC(N)=O)NC(=O)[C@@H](NC(=O)[C@@H](NC(=O)[C@@H]1CSSC[C@H](NC(=O)CNC(=O)CN)C(=O)N[C@@H](CCCNC(=N)N)C(=O)N[C@@H](Cc2ccccc2)C(=O)NCC(=O)N[C@@H]([C@@H](C)O)C(=O)N1)[C@@H](C)O)C(C)C)C(=O)N[C@@H](Cc1ccc(O)cc1)C(=O)N[C@@H](CCC(N)=O)C(=O)N[C@@H](Cc1ccccc1)C(=O)N[C@H](C(=O)N[C@@H](CC(=O)O)C(=O)N[C@@H](CCCCN)C(=O)N[C@@H](CC(=O)O)C(=O)N[C@@H](CCCCN)C(=O)N[C@@H](CC(=O)O)C(=O)N[C@@H](CC(N)=O)C(=O)N[C@H](C(=O)N[C@@H](C)C(=O)N1CCC[C@H]1C(=O)N[C@H]1CC(=O)NCCCC[C@@H](C(=O)N2CCC[C@H]2C(=O)N[C@@H](CCC(N)=O)C(=O)NCC(=O)N[C@@H](Cc2ccc(O)cc2)C(N)=O)NC(=O)[C@H]([C@@H](C)CC)NC(=O)[C@H](CCCCN)NC(=O)[C@H](CO)NC1=O)C(C)C)[C@@H](C)O [Example 2, ((4R,7S,13S,16S,19R)-19-(2-(2-aminoacetamido)acetamido)-13-benzyl-16-(3-guanidinopropyl)-7-((R)-1-hydroxyethyl)-6,9,12,15,18-pentaoxo-1,2-dithia-5,8,11,14,17-pentaazacycloicosane-4-carbonyl)-L-threonyl-ADM(23-43)-((3S,6S,9S,12S,20S)-6-(4-aminobutyl)-12-(λ^2-azaneyl)-3-((S)-sec-butyl)-9-(hydroxymethyl)-2,5,8,11,14-pentaoxo-1,4,7,10,15-pentaazacycloicosane-20-carbonyl)-L-prolyl-ADM(50-52)] (H-GGCRFGTCTVQKLAHQIYQFTDKDKDNVAPDSKIKPQGY-NH2; disulfide 3-8; lactam 31-35) | 91 ± 1 | 4.8 |
| CC[C@H](C)[C@H](NC(=O)[C@H](CCC(N)=O)NC(=O)[C@H](Cc1c[nH]cn1)NC(=O)[C@H](C)NC(=O)[C@H](CC(C)C)NC(=O)[C@H](CCCCN)NC(=O)[C@H](CCC(N)=O)NC(=O)[C@@H](NC(=O)[C@@H](NC(=O)[C@@H]1CSSC[C@H](NC(=O)CNC(=O)CN)C(=O)N[C@@H](CCCNC(=N)N)C(=O)N[C@@H](Cc2ccccc2)C(=O)NCC(=O)N[C@@H]([C@@H](C)O)C(=O)N1)[C@@H](C)O)C(C)C)C(=O)N[C@@H](Cc1ccc(O)cc1)C(=O)N[C@@H](CCC(N)=O)C(=O)N[C@@H](Cc1ccccc1)C(=O)N[C@H](C(=O)N[C@@H](CC(=O)O)C(=O)N[C@@H](CCCCN)C(=O)N[C@@H](CC(=O)O)C(=O)N[C@@H](CCCCN)C(=O)N[C@@H](CC(=O)O)C(=O)N[C@@H](CC(N)=O)C(=O)N[C@H](C(=O)N[C@@H](C)C(=O)N1CCC[C@H]1C(=O)N[C@H]1CCCCNC(=O)CC[C@@H](C(=O)N2CCC[C@H]2C(=O)N[C@@H](CCC(N)=O)C(=O)NCC(=O)N[C@@H](Cc2ccc(O)cc2)C(N)=O)NC(=O)[C@H]([C@@H](C)CC)NC(=O)[C@H](CCCCN)NC(=O)[C@H](CO)NC1=O)C(C)C)[C@@H](C)O [Example 3, ((4R,7S,13S,16S,19R)-19-(2-(2-aminoacetamido)acetamido)-13-benzyl-16-(3-guanidinopropyl)-7-((R)-1-hydroxyethyl)-6,9,12,15,18-pentaoxo-1,2-dithia-5,8,11,14,17-pentaazacycloicosane-4-carbonyl)-L-threonyl-ADM(23-43)-((2S,5S,8S,11S,20S)-5-(4-aminobutyl)-20-(λ^2-azaneyl)-8-((S)-sec-butyl)-2-(hydroxymethyl)-3,6,9,14,21-pentaoxo-1,4,7,10,15-pentaazacyclohenicosane-11-carbonyl)-L-prolyl-ADM(50-52)] (H-GGCRFGTCTVQKLAHQIYQFTDKDKDNVAPKSKIEPQGY-NH2; disulfide 3-8; lactam 31-35) | 93 ± 2 | 16 |
| CC[C@H](C)[C@H](NC(=O)[C@H](CCC(N)=O)NC(=O)[C@H](Cc1c[nH]cn1)NC(=O)[C@H](C)NC(=O)[C@H](CC(C)C)NC(=O)[C@H](CCCCN)NC(=O)[C@H](CCC(N)=O)NC(=O)[C@@H](NC(=O)[C@@H](NC(=O)[C@@H]1CSSC[C@H](NC(=O)CNC(=O)[C@@H](N)CCCCNC(=O)CCCCCCCCCCCCCCCCC(=O)O)C(=O)N[C@@H](CCCNC(=N)N)C(=O)N[C@@H](Cc2ccccc2)C(=O)NCC(=O)N[C@@H]([C@@H](C)O)C(=O)N1)[C@@H](C)O)C(C)C)C(=O)N[C@@H](Cc1ccc(O)cc1)C(=O)N[C@@H](CCC(N)=O)C(=O)N[C@@H](Cc1ccccc1)C(=O)N[C@H](C(=O)N[C@@H](CC(=O)O)C(=O)N[C@@H](CCCCN)C(=O)N[C@@H](CC(=O)O)C(=O)N[C@@H](CCCCN)C(=O)N[C@@H](CC(=O)O)C(=O)N[C@@H](CC(N)=O)C(=O)N[C@H](C(=O)N[C@@H](C)C(=O)N1CCC[C@H]1C(=O)N[C@@H](CCCNC(=N)N)C(=O)N[C@@H](CO)C(=O)N[C@@H](CCCCN)C(=O)N[C@H](C(=O)N[C@@H](CO)C(=O)N1CCC[C@H]1C(=O)N[C@@H](CCC(N)=O)C(=O)NCC(=O)N[C@@H](Cc1ccc(O)cc1)C(N)=O)[C@@H](C)CC)C(C)C)[C@@H](C)O [Example 5, ((4R,7S,13S,16S,19R)-19-(2-((S)-2-amino-6-(17-carboxyoctadecanamido)hexanamido)acetamido)-13-benzyl-16-(3-guanidinopropyl)-7-((R)-1-hydroxyethyl)-6,9,12,15,18-pentaoxo-1,2-dithia-5,8,11,14,17-pentaazacycloicosane-4-carbonyl)-L-threonyl-ADM(23-52)] | 105 ± 5 | 17 |
